The text below walks through data of patent publication US10076527B2, “Standardized extract and its use in the manufacture of a medicament” (priority 2006, dated 2018).

For series [1], the system named is normal mice. The experiment in a line: Excretion promotion study in normal mice (India ink). Conditions: positive control, hypodermic injection 0.1 ml/10 g, p<0.01. It is filed as in vivo, ICR mice. The method, then: In this experiment, 50 male ICR mice weighing 23-27 g respectively were divided randomly into 5 groups with 10 per group, i.e. normal control, positive control and three dose groups at 2.48 mg/kg, 4.96 mg/kg and 9.92 mg/kg, respectively. They were fasted for 24 hours before the experiment.
The mice in the positive control group were given an injection of 0.1 ml/10 g body weight of Neostigmine hypodermically while the mice in the normal control groups were given rectal administrations of saline of 0.02 ml/10 g body weight. The mice in the three dose groups were given rectal administrations of the Muskmelon-Base extract (diluted with saline to give desired doses and given 0.02 ml/10 g body weight).
After medication, all the mice were intra-gastrically given infusions of India ink (10% ink, diluted with saline, at the dose 0.02 ml/10 g of body weight). The mice were individually put into a cage with white filter paper flooring. The time of excretion and quantity of the feces were recorded during 4-hour observation periods.

For series [2], the system named is mice with gastrointestinal hypo-function induced by atropine. The experiment in a line: Intestine enterokinesia in mice with gastrointestinal hypo-function induced by atropine. It is filed as in vivo, ICR mice. Conditions: extract high dose rectal; Neostigmine 0.15 mg/kg hypodermic. The method, then:
In this experiment, 66 male ICR mice weighing 22-26 g respectively were divided randomly into 6 groups with 11 per group. They were fasted for 24 hours before the experiment. The 6 groups were named as: • Normal control group, • Model group, • Positive control group, and • The three dose groups.
The mice in the normal control group were only injected saline at 0.1 ml/10 g and mice in all other groups were injected 0.25 mg/kg of Atropine hypodermic at 0.1 ml/10 g body weight.
Twenty minutes after injection Muskmelon-Base extract (diluted with the saline) was given to the mice at the doses of […] by rectal administration and saline solution was given to the mice in normal, control and the model groups. Neostigmine hypodermic injection (0.15 mg/kg) was given to the mice in the positive control group at the dose 0.1 ml/10 g body weight. A further 20 minutes later, an intragastric administration of 10% ink was given to all the mice at the dose 0.2 ml/10 g body weight.
All the mice were killed and laparotomized in 90 minutes. The intestine from the pylorus to the anus was taken out to measure the whole length of the alimentary tract. The distance from the pylorus to the front the ink impelled was measured to calculate the impelling percentage.

The subject of series [3] is conscious dogs. As to conditions: intravenous injection; cited from earlier work.
In series [4] the test system is isolated guinea pig ileum. As to conditions: concentration of 54 mg/ml; cited from earlier work.
Series [5] deals with conscious cats. Conditions: intravenous injection; cited from earlier work.
In series [6] the test system is anesthetized dogs. As to conditions: intravenous injection; cited from earlier work.

As to `CN(C)C(=O)Oc1cccc([N+](C)(C)C)c1` [Neostigmine], the “quantity of the feces increased vs normal control” value in series [1] (4-hour observation) was 49%. Besides, the “duration for the first excretion of black feces shortened vs normal control” value in series [1] came to 53%. Further, in series [2], the “muscle spasm side effect” value was “always found in all mice”.

Turning to `CC(C)(O)/C=C/C(=O)[C@](C)(O)[C@H]1[C@H](O)C[C@@]2(C)[C@@H]3CC=C4[C@@H](C[C@H](O)C(=O)C4(C)C)[C@]3(C)C(=O)C[C@]12C` [Cucurbitacin D], the diarrhea result in series [3] and in series [5] was “induced diarrhea” each time. Besides, in series [4], the “effect on isolated guinea pig ileum” value was “did not cause any visible effect”. Also, the enterokinesia result in series [6] is on record as “stimulated enterokinesia”.
